Assay [1] concerns LOX-GFP cells. Briefly: LOX-GFP peritoneal (ascites) model. It counts as in vivo, Nu/Nu mice. As for the experimental part: Human melanoma LOX-GFP cells, prepared in accordance with the procedure of Example 3, were maintained in RPMI 1640 medium plus 10% FBS, and 1% Geneticin (G418).
Mice were euthanized, and then a small incision was made along the midline of the abdomen through the skin and peritoneum. A glass Pasteur pipet was utilized to aspirate and remove ascites fluid from the peritoneum, and the ascites was transferred to a 15 ml tube. 3 ml saline was used to rinse the peritoneal cavity, and all of the saline was recovered and transferred into the 15 ml tube containing the ascites fluid. The ascites cell suspension was filtered through a 40 μm nylon filter to obtain a single cell suspension and centrifuged at 1500 rpm for 10 min. The supernatant was removed, and the cell pellet was resuspended in 2 ml of fresh saline. 0.1 ml from each sample was transferred into a 96 well plate to evaluate cell number (reported as relative fluorescence units) utilizing an Acumen Explorer.

The test system of assay [2] is LOX-GFP-LM cells. Briefly: LOX-GFP-LM experimental metastasis model (lung homogenate fluorescence and survival). The class given is in vivo, SCID beige mice. As to conditions: for TGI % At day 26 (tumor growth inhibition relative to Vehicle control group) / RFU (mean ± SD) of lung homogenate / ILS % (increased lifetime-span) / 50% survival days / TGI % At day 25 (tumor growth inhibition relative to Vehicle control group): bid. As for the experimental part:
Female SCID beige mice were injected iv via the tail vein with 2 million cells in a volume of 200 μl serum free RPMI1640, randomized into groups, and treated as shown in Tables 6 and 7 with a variety of doses and/or dose schedules. […] The remaining mice from each group were monitored for survival benefit until they were moribund.
Two parameters were assessed for quantitative evaluation of anti-metastatic efficacy: 1) Fluorescence intensity of lung homogenates and 2) Survival.
5 mice per treatment group were removed from the study at Day 25 or 26 for evaluation of lung metastatic tumor burden. Mice were euthanized, and lungs were removed, placed in 3 ml saline, and homogenized. 0.2 ml of lung homogenate was transferred to a 96 well plate, and fluorescence was read using Acumen Explorer. […] Fluorescence was reported in relative fluorescence units (RFU). […] Statistical analysis was determined by Student-test or Mann-Whitney U test, and statistic differences between groups were considered to be significant when the probability value (p) was ≦0.05.
Survival represented overall metastatic status either due to lung metastasis or metastasis to other organs. Moribundity due to labored breathing or hind limb paralysis was monitored and recorded as the surrogate endpoint for survival. For survival assessment, results were plotted as the percentage survival against days after tumor implant. The Increased lifetime-span (% ILS) was calculated as: ILS %=100×[(median survival day of treated group−median survival day of control group)/median survival day of control group]. Median survival or (50% survival time) was determined utilizing Kaplan Meier survival analysis. […] Differences in survival were analyzed by the log-rank test. Statistic differences between groups were considered to be significant when the probability value (p) was ≦0.05.

Where [3] appears, read: 25, 50, 100 mg/kg po bid, 6 doses (Days 4, 5 & 6), ascites harvest Day 7.

Each structure is given as a SMILES string.

On to `COc1ccc(C2=N[C@@H](c3ccc(Cl)cc3)[C@@H](c3ccc(Cl)cc3)N2C(=O)N2CCNC(=O)C2)c(OC(C)C)c1` (stereo in doubt) [Compound D, 4-[(4S,5R)-4,5-Bis-(4-chloro-phenyl)-2-(2-isopropoxy-4-methoxy-phenyl)-4,5-dihydro-imidazole-1-carbonyl]-piperazin-2-one], for which, in assay [1] (setting [3]), the LOX-GFP ascites growth result is recorded as “inhibited LOX-GFP ascites growth at several doses”. Besides, the “dose dependence of LOX-GFP ascites growth inhibition” value in assay [1] (setting [3]) was “not dose-dependent”. Besides, the “TGI % At day 26 (tumor growth inhibition relative to Vehicle control group)” value in assay [2] (200 mg/kg po, Day 3-21) is 96.2%; in assay [2] (200 mg/kg po, Day −1-7), 66.0%; in assay [2] (200 mg/kg po, Day −1-21) it was 78.7%. The “RFU (mean ± SD) of lung homogenate” value in assay [2] (200 mg/kg po, Day 3-21, lungs at day 26) is on record as 2359191 ± 526586 RFU; in assay [2] (200 mg/kg po, Day −1-7, lungs at day 26), 21092887 ± 10460489 RFU; in assay [2] (200 mg/kg po, Day −1-21, lungs at day 26) it was 13230372 ± 11960417 RFU. Further, the “ILS % (increased lifetime-span)” value in assay [2] (200 mg/kg po, Day 3-d21) turned out to be 29%; in assay [2] (200 mg/kg po, Day −1-d7), 0%; in assay [2] (200 mg/kg po, Day −1-d21), 10.7%. Also, the 50% survival days in assay [2] (200 mg/kg po, Day 3-d21, Vehicle 28 days) stood at 36 days; in assay [2] (200 mg/kg po, Day −1-d7, Vehicle 28 days), 28 days; in assay [2] (200 mg/kg po, Day −1-d21, Vehicle 28 days) it was 31 days. In addition, in assay [2] (late intervention (Dosed Day 3 through 23) as compared to Vehicle), the “anti-metastatic activity as assessed by fluorescence intensity of lung homogenates” value is given as “superior anti-metastatic activity”.
As for `COc1ccc(F)c(F)c1C(=O)c1cnc(NC2CCN(S(C)(=O)=O)CC2)nc1N` [Compound A, [4-Amino-2-(1-methanesulfonyl-piperidin-4-ylamino)-pyrimidin-5-yl]-(2,3-difluoro-6-methoxy-phenyl)-methanone], the “LOX-GFP ascites cell growth” value is “reduced cell growth” in assay [1] (Compound A 40 mg/kg po, 2 doses (Days 5 & 6), ascites harvest Day 7); “reduced cell growth maximally” in assay [1] (Compound A 40 mg/kg po, 3 doses (Days 4, 5 & 6), ascites harvest Day 7); “did not inhibit cell growth” in assay [1] (Compound A 40 mg/kg po, single dose (Day 6), ascites harvest Day 7).
Take `COc1ccc(C2=NC(c3ccc(Cl)cc3)C(c3ccc(Cl)cc3)N2C(=O)N2CCNC(=O)C2)c(OC(C)C)c1` (stereo not drawn) [Compound B, 4-[4,5-Bis-(4-chloro-phenyl)-2-(2-isopropoxy-4-methoxy-phenyl)-4,5-dihydro-imidazole-1-carbonyl]-piperazin-2-one]: in assay [1] (40 mg/kg sc, 6 doses, ascites harvest Day 8), the LOX-GFP ascites growth entry is “demonstrated inhibitory effects on LOX-GFP ascites growth”.
For `CCOc1ccnc2ccc(/C=C3\SC(N[C@@H](CO)c4ccccc4)=NC3=O)cc12` [Compound C, 5-(4-Ethoxy-quinolin-6-ylmeth-(Z)-ylidine)-2-(2-hydroxy-1-(R)-phenyl-ethylamino)-thiazol-4-one], in assay [1] (200 mg/kg po bid, 12 doses, ascites harvest Day 8), the LOX-GFP ascites growth result is listed as “demonstrated inhibitory effects on LOX-GFP ascites growth”.
In the case of `Cc1[nH]nc2c1N=C(c1ccccc1Cl)c1cc(N)ccc1N2` [Compound E], the “TGI % At day 25 (tumor growth inhibition relative to Vehicle control group)” value in assay [2] (5 mg/kg po, Day 3-23) is listed as 82.3%; in assay [2] (5 mg/kg po, Day −1-7), −5.9%; in assay [2] (5 mg/kg po, Day −1-23), 73.9%. In addition, the “RFU (mean ± SD) of lung homogenate” value is 8618508 ± 3198528 RFU in assay [2] (5 mg/kg po, Day 3-23, lungs at day 25); 51670506 ± 29321586 RFU in assay [2] (5 mg/kg po, Day −1-7, lungs at day 25); 12738540 ± 5426672 RFU in assay [2] (5 mg/kg po, Day −1-23, lungs at day 25). In addition, the “ILS % (increased lifetime-span)” value in assay [2] (5 mg/kg po, Day 3-d23) stood at 16.7%; in assay [2] (5 mg/kg po, Day −1-d7), 4.2%; in assay [2] (5 mg/kg po, Day −1-d23) it was 16.7%. The 50% survival days is listed as 28 days in assay [2] (5 mg/kg po, Day 3-d23, Vehicle 24 days); 25 days in assay [2] (5 mg/kg po, Day −1-d7, Vehicle 24 days); 28 days in assay [2] (5 mg/kg po, Day −1-d23, Vehicle 24 days). Further, the “anti-metastatic activity as assessed by fluorescence intensity of lung homogenates” value in assay [2] (late intervention (Dosed Day 3 through 23) vs full length intervention (Day −1 through 23)) is recorded as “equivalent anti-metastatic activity”.
Regarding `CC(=O)O[C@H]1C(=O)[C@@]2(C)[C@H]([C@H](OC(=O)c3ccccc3)[C@]3(O)C[C@H](OC(=O)[C@H](O)[C@@H](NC(=O)c4ccccc4)c4ccccc4)C(C)=C1C3(C)C)[C@]1(OC(C)=O)CO[C@@H]1C[C@@H]2O` [Taxol, reference compound], the “LOX-GFP ascites cell growth” value in assay [1] (Taxol 10 mg/kg iv, 2 doses (Days 5 & 6), ascites harvest Day 7) is recorded as “reduced cell growth”; in assay [1] (Taxol 10 mg/kg iv, 3 doses (Days 4, 5 & 6), ascites harvest Day 7), “reduced cell growth maximally”; in assay [1] (Taxol 10 mg/kg iv, single dose (Day 6), ascites harvest Day 7) it was “did not inhibit cell growth”.

Source of the values: patent publication US7749486B2 (Hoffmann-La Roche Inc., priority 2006, dated 2010).
